What was measured:
Experiment in all cases: relative viability (nuclei count vs DMSO), 5 days (fraction); higher = more cells survive
Trametinib + Pictilisib = compound: CC(=O)Nc1cccc(-n2c(=O)n(C3CC3)c(=O)c3c(Nc4ccc(I)cc4F)n(C)c(=O)c(C)c32)c1 [Trametinib] + CS(=O)(=O)N1CCN(Cc2cc3nc(-c4cccc5[nH]ncc45)nc(N4CCOCC4)c3s2)CC1 [Pictilisib] (partner 1 µM)
Method in brief: (§1)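 Five library-drug doses in √10 steps were combined with a fixed anchor-drug dose, or a single drug was given alone, by pin tool to lung cancer cell lines in 1536-well plates the day after seeding. Nuclei were stained and counted after 5 days. Relative viability is the nuclei count in treated wells over that in vehicle wells, taken as the median of duplicate plates.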

[1] = compound: CN1C=C(C2=CC=CC=C21)/C=C\3/C4=C(C=CC=N4)NC3=O + NC(=O)Nc1cc(-c2cccc(F)c2)sc1C(=O)N[C@H]1CCCNC1 [AZD7762] (partner 0.2 µM)
Method in brief: as §1

[2] = compound: CN1C=C(C2=CC=CC=C21)/C=C\3/C4=C(C=CC=N4)NC3=O + C[C@@H](Oc1cc(-c2cnn(C3CCNCC3)c2)cnc1N)c1c(Cl)ccc(F)c1Cl [Crizotinib] (partner 1 µM)
Method in brief: as §1

[3] = compound: CN1C=C(C2=CC=CC=C21)/C=C\3/C4=C(C=CC=N4)NC3=O + CC1(C)CCC(c2ccc(Cl)cc2)=C(CN2CCN(c3ccc(C(=O)NS(=O)(=O)c4ccc(N[C@H](CCN5CCOCC5)CSc5ccccc5)c(S(=O)(=O)C(F)(F)F)c4)cc3)CC2)C1 [Navitoclax] (partner 0.5 µM)
Method in brief: as §1

| Cell Line | relative viability (Trametinib + Pictilisib; first compound 0.0025 µM) | relative viability (Trametinib + Pictilisib; first compound 0.007906 µM) | relative viability (Trametinib + Pictilisib; first compound 0.07906 µM) | relative viability (Trametinib + Pictilisib; first compound 0.25 µM) | relative viability ([1]; first compound 0.02 µM) | relative viability ([1]; first compound 0.06325 µM) | relative viability ([1]; first compound 0.2 µM) | relative viability ([1]; first compound 0.6325 µM) | relative viability ([1]; first compound 2 µM) | relative viability ([2]; first compound 0.02 µM) | relative viability ([2]; first compound 0.06325 µM) | relative viability ([2]; first compound 0.2 µM) | relative viability ([2]; first compound 0.6325 µM) | relative viability ([2]; first compound 2 µM) | relative viability ([3]; first compound 0.02 µM) | relative viability ([3]; first compound 0.06325 µM) | relative viability ([3]; first compound 0.2 µM) | relative viability ([3]; first compound 0.6325 µM) | relative viability ([3]; first compound 2 µM) | relative viability (Trametinib + Pictilisib; first compound 0.025 µM) |
| --- | --- | --- | --- | --- | --- | --- | --- | --- | --- | --- | --- | --- | --- | --- | --- | --- | --- | --- | --- | --- |
| NCI-H838 | 0.351 | 0.415 | 0.319 | 0.281 | 0.81 | 0.753 | 0.789 | 0.871 | 0.632 | 0.615 | 0.657 | 0.761 | 0.707 | 0.833 | 0.941 | 1.04 | 1.05 | 1.04 | 1.1 | – |
| NCI-H1355 | 0.339 | 0.313 | 0.228 | 0.214 | 0.715 | 0.708 | 0.637 | 0.606 | 0.642 | 0.909 | 0.97 | 0.992 | 0.675 | 0.819 | 0.868 | 0.921 | 0.793 | 0.632 | 0.673 | 0.199 |
| NCI-H1437 | 0.151 | 0.144 | 0.129 | 0.148 | 1.23 | 1.2 | 1.1 | 1.17 | 1.26 | 0.878 | 0.898 | 0.989 | 0.915 | 1.14 | 1.08 | 1.08 | 1.18 | 1.18 | 1.19 | 0.113 |
| NCI-H1651 | 0.5 | 0.488 | 0.49 | 0.389 | 0.497 | 0.455 | 0.433 | 0.557 | 0.477 | 0.804 | 0.905 | 0.876 | 0.819 | 0.895 | 0.955 | 0.969 | 1.24 | 1.05 | 1.15 | 0.406 |
| NCI-H1666 | 0.267 | 0.371 | 0.255 | 0.244 | 0.896 | 0.79 | 0.826 | 0.742 | 0.871 | 0.847 | 0.822 | 0.704 | 1.17 | 0.927 | 1.19 | 0.883 | 0.879 | 0.761 | 0.542 | 0.276 |
| NCI-H1703 | 0.23 | 0.224 | 0.269 | 0.258 | 0.107 | 0.138 | 0.118 | 0.112 | 0.14 | 0.724 | 0.783 | 0.556 | 0.699 | 0.604 | 1.06 | 1.03 | 1.01 | 0.966 | 0.998 | 0.206 |
| NCI-H1734 | 0.439 | 0.448 | 0.362 | 0.299 | 0.521 | 0.537 | – | 0.546 | 0.559 | 0.665 | 0.677 | – | 0.696 | 0.744 | 0.817 | 0.82 | – | 0.798 | 0.83 | – |
| NCI-H1755 | 0.396 | 0.348 | 0.331 | 0.228 | 0.443 | 0.408 | 0.354 | 0.448 | 0.409 | 0.855 | 0.802 | 0.827 | 0.836 | 0.919 | 0.836 | 1 | 0.98 | 0.909 | 0.885 | 0.248 |
| NCI-H1792 | 0.227 | 0.183 | 0.152 | 0.104 | 0.943 | 0.702 | 0.376 | 0.518 | 0.693 | 0.759 | 0.999 | 0.87 | – | 0.898 | 0.343 | 0.642 | 0.529 | – | 0.496 | 0.182 |
| NCI-H1915 | 0.963 | 0.466 | 0.287 | 0.24 | 0.678 | 0.646 | 0.529 | 0.751 | 0.699 | 0.767 | 0.873 | 0.87 | 1.07 | 0.973 | 0.823 | 0.8 | 0.805 | 0.772 | 0.801 | 0.317 |
| NCI-H1944 | 0.333 | 0.307 | 0.278 | 0.262 | 0.442 | 0.471 | – | 0.464 | 0.469 | 0.939 | 0.995 | – | 1.24 | 1.18 | 1.11 | 1.01 | – | 1.09 | 1.13 | 0.253 |
| NCI-H1975 | 0.252 | 0.199 | 0.162 | 0.179 | 0.893 | 0.811 | 0.62 | 0.602 | 0.542 | 0.749 | 0.939 | 0.915 | 0.817 | 0.796 | 0.955 | 1.05 | 1.07 | 0.937 | 0.94 | 0.137 |
| NCI-H1993 | 0.864 | 0.913 | 0.806 | 0.897 | 0.704 | 0.666 | 0.671 | 0.698 | 0.626 | 0.726 | 0.816 | 0.741 | 0.868 | 0.87 | 0.726 | 0.768 | 0.894 | 0.682 | 0.856 | 0.792 |
| NCI-H2085 | 0.412 | 0.353 | 0.327 | 0.32 | 0.97 | 1.03 | 0.968 | 0.956 | 0.947 | 0.738 | 0.892 | 0.752 | 0.868 | 0.803 | 1.04 | 1.15 | 1.19 | 1.22 | 1.18 | 0.418 |

— the supplement of paper PMC10307832
